Data taken from US20200172911A1, “USP30 INHIBITORS AND METHODS OF USE” (Genentech, Inc., priority 2012, published 2020).
Read-outs that look alike come from different tables or passages of the source. Where a SMILES comes first, the peptide text is derived from it. Bridges are numbered along the chain shown (N, C = ends).

Experiments:
[1] = format: in vivo, Drosophila; conditions: 10 mM, 48 hours
Procedure: 1-day old adult males were fed a solution containing 5% sucrose only (in water) or 5% sucrose+10 mM paraquat (in water) on saturated Whatman paper. After 48 hours of treatment, 15 flies were collected per condition and homogenized in 100 μL water. Standard curve samples were generated by spiking appropriate amounts of paraquat to homogenates from untreated flies. Then the samples were vortex mixed, 200 μL of acetonitrile containing internal standard (Propranolol) was added. The samples were vortexed again and centrifuged at 10,000×g for 10 min. Supernatants were transferred to a new plate that contained 200 μL of water and analyzed by LC-MS/MS to quantify for concentrations of paraquat. The LC-MS/MS consisted of an Agilent 1100 series HPLC system (Santa Clara, Calif.) and an HTS PAL autosampler from CTC Analytics (Carrboro, N.C.) coupled with a 4000 Q TRAP® MS and TurbolonSpray® ion source from Applied Biosystems (Foster City, Calif.). HPLC separation was performed on a Waters Atlantis dC18 column (3 μm 100×2.1 mm) with a Krud Katcher guard column from Phenomenex. Quantitation was carried out using the multiple reaction monitoring (MRM) with transition 185.1→165.1 for paraquat and 260.2→183.1 for propranolol. The lower and upper limit of the assay is 10 μM and 1000 μM, respectively. The quatitation of the assay employed a calibration curve which was constructed through plotting the analyte/IS peak area ration versus the nominal concentration of paraquat with a weighed 1/x^2 linear regression.
To test whether USP30 knockdown has an effect on organism survival, we monitored the percentage of live flies over prolonged treatment with paraquat (10 mM, 96 hours). […] We confirmed that the benefit of USP30 knockdown was not due to differences in exposure to paraquat since all three fly lines ingested roughly equal amounts of paraquat as measured by LC-MS/MS (average mass of paraquat per fly: UAS-dUSP30^RNAi: 3.2 μg, Actin-GAL4: 2.7 μg, Actin-GAL4>UAS-dUSP30R^RNAi: 2.7 μg). […]

Drosophila [2] = test: dopamine levels in fly heads by ELISA; format: in vivo; conditions: control fly lines, paraquat 10 mM, 48 hours
Excerpt: To examine the effect of suppressing USP30 in neurons that are relevant to PD, we used dopamine decarboxylase (Ddc)-GAL439 to drive dUSP30^RNAi specifically in aminergic neurons of the fly nervous system. As a model of mitochondrial damage and PD, we treated flies with paraquat, a mitochondrial toxin linked to PD (Castello et al., J. Biol. Chem., 282: 14186-14193 (2007); Cocheme et al., J. Biol. Chem., 283: 1786-1798 (2008); Tanner et al., Environmental Health Perspect., 119: 866-872 (2011)). […] This climbing defect was fully rescued by additional treatment with L-DOPA (FIG. 17D), showing that this behavioral deficit is likely due to depletion of dopamine. Consistently, in control fly lines (Ddc-GAL4 or UAS-dUSP30^RNAi transgenics alone), paraquat treatment (10 mM, 48 hours) caused a 30-60% reduction in dopamine levels in fly heads without altering serotonin neurotransmitter levels (indicating specific toxicity of paraquat on the dopaminergic system in this model—FIG. 12F and FIG. 17E).

Drosophila [3] = format: in vivo; conditions: Actin-GAL4 and UAS-dUSP30^RNAi control groups, paraquat 10 mM, 96 hours
Procedure: Ten adult 1-day old males per vial were fed a solution containing 5% sucrose only (in water) or 5% sucrose+10 mM paraquat (in water) on saturated Whatman paper. The number of live flies was counted at described intervals.
To test whether USP30 knockdown has an effect on organism survival, we monitored the percentage of live flies over prolonged treatment with paraquat (10 mM, 96 hours). […] Only <15% of flies treated with paraquat were alive in Actin-GAL4 and UAS-dUSP30^RNAi control groups at 96 hours whereas ˜45% of flies were alive in the Actin-GAL4>UAS-dUSP30^RNAi (‘whole body dUSP30 knockdown’) group (FIG. 12G). We confirmed that the benefit of USP30 knockdown was not due to differences in exposure to paraquat since all three fly lines ingested roughly equal amounts of paraquat as measured by LC-MS/MS (average mass of paraquat per fly: UAS-dUSP30^RNAi: 3.2 μg, Actin-GAL4: 2.7 μg, Actin-GAL4>UAS-dUSP30R^RNAi: 2.7 μg). […] Remarkably, USP30 knockdown specifically in Ddc neurons was sufficient to provide significant survival benefit, albeit less than the whole body USP30 knockdown (FIG. 12H).

[4] = target: T1, USP30_cd (USP30 catalytic domain with C77A mutation) (Homo sapiens, UniProt Q70CQ3, C77A); test: spot phage ELISA against biotinylated USP30_cd; format: binding; conditions: USP30_cd on NeutrAvidin plate versus NeutrAvidin plate alone
T1 construct: biotinylated USP30_cd (USP30 catalytic domain with C77A mutation); biotin (biotinylated)
T1 sequence (Q70CQ3 68-502 C77A limits assumed): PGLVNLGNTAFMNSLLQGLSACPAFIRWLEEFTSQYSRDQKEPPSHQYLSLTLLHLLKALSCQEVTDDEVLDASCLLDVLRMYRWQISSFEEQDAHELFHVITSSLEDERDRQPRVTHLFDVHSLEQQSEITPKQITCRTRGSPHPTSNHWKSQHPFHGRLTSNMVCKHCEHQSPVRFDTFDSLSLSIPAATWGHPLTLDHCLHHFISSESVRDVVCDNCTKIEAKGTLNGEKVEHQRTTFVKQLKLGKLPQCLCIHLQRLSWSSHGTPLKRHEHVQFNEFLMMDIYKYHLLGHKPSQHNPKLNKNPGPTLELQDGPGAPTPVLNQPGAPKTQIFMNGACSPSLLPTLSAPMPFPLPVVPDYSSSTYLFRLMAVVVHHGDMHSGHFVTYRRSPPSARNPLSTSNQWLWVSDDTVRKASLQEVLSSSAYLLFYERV
Excerpt: The selection identified peptide USP30_3 and USP30_8, which had moderate spot ELISA signals (signal/noise ratios of ˜5). USP_30 and USP_8 have the sequences:
Peptide USP30_3 was selected for affinity maturation. To improve the affinity, a soft randomized library was constructed using the USP30_3 sequence as the targeted parent, and panned against USP30_cd in solution as described previously (Stanger, et al., 2012, Nat. Chem. Bio., 7: 655-660). After four rounds of solution panning, 20 peptides were identified that bound to USP30 catalytic domain with stronger spot phage ELISA signal than the parent USP30_3, manifested by an improvement in the signal/noise ratio of about 3-6 fold.
The sequences for certain affinity matured peptides are shown below the graph, along with the signal to noise ratio (“S/N”), which is the ratio of the spot phage ELISA signal (“signal”) detected against biotinylated USP30 cd captured on NeutrAvidin-coated 384 well Maxisorb plates versus the ELISA signal against the NeutrAvidin-coated plate alone. […] All of the affinity matured peptides shown had signal to noise ratios of greater than 10 except for USP30_3.27 and USP30_3.62.

Drosophila [5] = test: climbing assay with paraquat; format: in vivo; conditions: control flies, paraquat 10 mM 48 hours, L-DOPA 1 mM 48 hours
Procedure: Climbing assays were performed using the following Drosophila lines: y, w; Actin5C-GAL4/CyO, y+ (Actin only); y, w; UAS-CG3016-RNAi/CyO, y+ (RNAi only); y, w; UAS-CG3016^RNAi, Actin5C-GAL4/CyO, y+ (USP30 knockdown).
1-day old adult males were fed a solution containing 5% sucrose only (in water) or 5% sucrose+10 mM paraquat (in water) on saturated Whatman paper. After 48 hours of treatment, flies were anesthetized using carbon dioxide and transferred in groups of ten to vials containing only 1% agarose for a 1-hour recovery period from the effects of carbon dioxide. The flies were then transferred into a new glass tube, gently tapped to the bottom and scored for their ability to climb. The number of flies climbing vertically >15 cm in 30 seconds was recorded.
To examine the effect of suppressing USP30 in neurons that are relevant to PD, we used dopamine decarboxylase (Ddc)-GAL439 to drive dUSP30^RNAi specifically in aminergic neurons of the fly nervous system. As a model of mitochondrial damage and PD, we treated flies with paraquat, a mitochondrial toxin linked to PD (Castello et al., J. Biol. Chem., 282: 14186-14193 (2007); Cocheme et al., J. Biol. Chem., 283: 1786-1798 (2008); Tanner et al., Environmental Health Perspect., 119: 866-872 (2011)). […]

hippocampal neurons = test: mito-roGFP relative oxidation index imaging; format: cell-based, rat; conditions: 0 = after DTT, 1 = after aldrithiol; luciferase shRNA control ~0.6
Excerpt: Whether USP30 knockdown provides functional benefit to mitochondria and cells was examined next. ROS—which largely derive from mitochondria—is associated with neurodegenerative disorders and mitochondria dysfunction may contribute to increased oxidative stress in PD (Lee et al., Biochem. J, 441: 523-540 (2012)). To measure oxidative stress in mitochondria, mitochondria matrix-targeted ro-GFP (mito-roGFP), a redox-sensitive fluorescent protein that allows quantitative ratiometric imaging of mitochondrial redox potential was used (Dooley et al., J. Biol. Chem. 279: 22284-22293 (2004)).

[6] = tested on: cultured hippocampal neurons; test: mt-Keima mitophagy index imaging in hippocampal neurons; format: cell-based, rat; conditions: relative to luciferase shRNA
Procedure: Dissociated hippocampal neuron cultures were prepared as described (Seeburg et al., Neuron 58: 571-583 (2008)) and transfected using Lipofectamine LTX PLUS at DIV 8-10. Constructs were expressed for 1-3 days for overexpression experiments and 3-4 days for knockdown experiments. mt-Keima-transfected neurons were imaged with a Leica TCS SP5 Laser Scanning Confocal microscope with a 40×/1.25 oil objective (0.07 μm/pixel resolution, […] confocal z-step size). Cells were kept in a humidified chamber maintained at 37° C./5% CO2 during imaging. Two images were acquired using a hybrid detector in sequential mode with 458 nm (neutral pH signal) and 543 nm (acidic pH signal) laser excitation, and emission fluorescence collected between 630-710 nm. All image quantification was performed by custom-written macros in ImageJ. For mt-Keima quantification, cell bodies were manually outlined and total area of high ratio (543 nm/458 nm) lysosomal signal was divided by the total area of somatic mitochondrial signal (mitophagy index).
To measure mitophagy in neurons, mt-Keima, a ratiometric pH-sensitive fluorescent protein that is targeted into the mitochondrial matrix, was monitored. A low ratio mt-Keima-derived fluorescence (543 nm/458 nm) reports neutral environment whereas a high ratio fluorescence reports acidic pH (Katayama et al., Chemistry & Biology 18: 1042-1094 (2011)). […]

USP30 = test: immunoblot of endogenous USP30 in neuronal cultures; format: cell-based, rat
Excerpt: Adeno-associated virus type2 (AAV2) particles expressing Parkin, PINK1 and USP30 shRNAs were produced by Vector Biolabs, Inc. from pAAV-BASIC-CAGeGFP-WPRE vector containing the HI promoter and shRNA expression cassette of the pSuper vectors.
To test the function of endogenous USP30, USP30 was knocked down using shRNAs. In heterologous cells, rat USP30 shRNA plasmid specifically eliminated the expression of transfected rat USP30 cDNA (FIG. 5B). The same rat USP30 shRNA led to a ˜85% reduction in endogenous USP30 in neuronal cultures (FIG. 5C). In neurons, USP30 knockdown increased the lysosomal delivery of mt-Keima (˜60% increase in mitophagy index), relative to negative control luciferase shRNA (FIG. 5D, F).

With `C[n+]1ccc(-c2cc[n+](C)cc2)cc1` [paraquat, paraquat dichloride] the “average mass of paraquat per fly” value ([1]; Actin-GAL4>UAS-dUSP30^RNAi flies) was 2.7 µg, the “average mass of paraquat per fly” value ([1]; Actin-GAL4 flies) was 2.7 µg and the “average mass of paraquat per fly” value ([1]; UAS-dUSP30^RNAi flies) was 3.2 µg. The “reduction in dopamine levels in fly heads” value (Drosophila [2]) was 30-60% and the flies alive (Drosophila [3]) was < 15%.

In the case of `CC(C)C[C@H](NC(=O)[C@@H]1CCCN1)C(=O)N[C@@H](Cc1ccc(O)cc1)C(=O)N[C@H]1CSSC[C@@H](C(=O)N[C@@H](Cc2ccccc2)C(=O)N[C@@H](Cc2ccc(O)cc2)C(=O)O)NC(=O)[C@H](CC(C)C)NC(=O)[C@H](Cc2ccc(O)cc2)NC(=O)CNC(=O)[C@H](Cc2ccc(O)cc2)NC(=O)[C@H]([C@@H](C)O)NC(=O)[C@H](CC(C)C)NC(=O)[C@H](CC(=O)O)NC(=O)[C@H](Cc2ccc(O)cc2)NC(=O)[C@H](Cc2ccccc2)NC1=O` [USP30_3, PLYCFYDLTYGYLCFY] (H-PLYCFYDLTYGYLCFY-OH; disulfide 4-14; N-terminus and C-terminus assumed), the “spot ELISA signal/noise ratio” value [4] is reported as ~5.

With `N[C@@H](Cc1ccc(O)c(O)c1)C(=O)O` [L-DOPA] the “rescue of paraquat-induced climbing defect” value (Drosophila [5]) was “fully rescued”.

With “CCAGAGCCCTGTTCGGTTT ((CCAGAGCCCTGTTCGGTTT; as printed in the source, key not given here) [rat USP30 shRNA]” the relative oxidation index (hippocampal neurons) was ~0.4, the “increase in mitophagy index” value [6] was ~60% and the “reduction in endogenous USP30” value (USP30) was ~85%.
